Entries after “also recorded” stand apart in the source; their conditions may differ. Where two headings read alike, the source gives them in different places. One block for each compound: values may come before it.
Experiments:
Assay type in all cases: physicochemical
[1] = Competitive suspension equilibrations in acetonitrile; settings: acetonitrile (20 vol)
From the text: Form A of Compound 1 and the appropriate other form(s) of Compound 1 were suspended in acetonitrile (20 vol). […] When completed, the products were isolated, oven dried and analysed by XRPD.

[2] = Dynamic vapour sorption (DVS) of Form A
Experimental: The moisture sorption properties of the feed API were analysed by DVS (DVS Intrinsic,
Surface Measurement System). Approximately 50 mg of API was weighed into an aluminium pan and loaded into the instrument at 25° C. The sample was allowed to equilibrate under dry atmosphere (0% relative humidity) for 1 hour before increasing the humidity from 0% to 30% at 5% step increment and from 30% to 90% at 10% step increment. A desorption cycle was also applied from 90% to 30% (10% step) and from 30% to 0% (5% step). A rate of change by time was set as the equilibrium parameter (1 hour each step). Kinetic and isotherm graphs were calculated.

[3] = Thermocycling of Form B(I) in buffered aqueous suspensions (Form A control); settings: −10° C. to +40° C.
Experimental: Form B(I) was prepared in the relevant formulation under sterile conditions. The samples were thermocycled for approximately 202 complete cycles. Off-line analyses of the suspensions were performed by polarised light microscopy and end point sampling was performed on the isolated solid pellets of the suspensions after centrifugation. The thermocycling incorporated a wide temperature range (−10° C. to +40° C.). A parallel study was performed using micronised Form A as control.
In all cases, the suspension volume was 2 ml and thermocycling was carried out over a temperature range −10° C. to +40° C. at a rate of change of 1° C./min for a duration of 336 hours (14 days) and […] cycles.
At daily intervals, a droplet from each thermocycle suspension was withdrawn, placed on a microscope slide and photographed. After 14 days constant thermocycling, the suspensions were filtered, isolable solids were oven dried and analysed for evidence of form change and change in chemical purity.

[4] = Suspension equilibrations of Form A (Example 7)
Experimental: Compound 1 Form A, (ca 50 mg, 1.0 wt) and the appropriate solvent (1000 μl, 20 vol) were charged to separate vessels and stirred for 7 days at 20° C. After this time the products were cooled, isolated by filtration, washed with recycled maturation solvent, dried under reduced pressure at 40° C. and analysed by XRPD for evidence of alternative crystalline forms.
Separate portions of Compound 1, Form A (ca 50 mg, 1.0 wt.), and the appropriate solvent (1000 μl, 20 vol.) were charged to separate vessels and stirred for 7 days at 40° C. After this time, the products were cooled, isolated by filtration, washed with recycled maturation solvent, dried under reduced pressure at 40° C. and analysed by XRPD for evidence of alternative crystalline forms. N.B. water was also included in this screen. • All of the products corresponded to Form A, except the product isolated from tBME (Form D), and from THF (Form G; see FIG. 18). […] C. Aqueous Suspension Equilibrations of Form A at 20° C.
Separate portions of Compound 1, Form A (ca 50 mg, 1.0 wt.), and the appropriate solvent (950 μl, 19 vol) and purified water (50 μl, 1.0 vol) were charged to separate vessels and stirred for 7 to 10 days at 20° C. […] Form C is an anhydrous form, and sometimes occurs in the presence of aromatic solvents (toluene and trifluorotoluene).

[5] = Aqueous surfactant equilibration of Form A: conversion into Form B monitored by XRPD
Experimental: A sample of Form A was micronised using an AS100 spiral jet mill (Alpine) with a ZD9 screw dosing system at a milling gas pressure of 5.0 bar (18° C.) and an injection gas pressure of 6.0 bar (18° C.). Feed rate was 350 g/hr.
Form A and micronised Form A were added to purified water containing the surfactants shown in Table 6, and the mixtures were stirred at 20° C.
Sub samples (300 to 500 μl) were withdrawn at the appropriate time points. The mixtures were centrifuged, the clarified supernatant was decanted, and the pellet was oven dried (20° C., 24 h) and analysed by XRPD. […] The time taken for complete conversion of Form A into Form B was concluded when Form A was no longer detectable by XRPD.
A micelle is an aggregate of surfactant molecules dispersed in a liquid colloid. Micelles form only when the concentration of surfactant is greater than the critical micelle concentration (CMC). • Surf 1: TWEEN® 80 (polysorbate 80; polyoxyethylene sorbitan monooleate) Critical Micellar Concentration (CMC) 13-15 mg/litre [actual concentration used=1 mg/ml, 1000 mg/litre>CMC] • Surf 2: TWEEN® 20 (polysorbate 20; polyethylene glycol sorbitan monolaurate) 20 Critical Micellar Concentration (CMC) ca 61 mg/litre [actual concentration used=0.5 mg/ml, 500 mg/litre>CMC] • Surf 3: SPAN® 20 (sorbitan monolaurate) no CMC in water, too hydrophobic and yet still exerted an inhibitory effect on the form conversion • Surf 4: TWEEN® 80 Critical Micellar Concentration (CMC) 13-15 mg/litre [actual concentration used=0.01 mg/ml, 10 mg/litre<CMC] • TWEEN® surfactants are soluble in water and SPAN® surfactants are oil soluble and not able to form micelles in water.

[6] = Thermocycling of Form A, Form B(I) and Form B(II) in purified water; settings: purified water (10 vol), −10 to +10° C., ±0.5° C./minute, 75 h
Experimental: Samples of Compound 1, Form A, Form B(I) and Form B(II) were charged to separate Crystal 16 blank, glass vials and purified water (1 ml, 10.0 vol) was added each vial. Each vial underwent thermocycling from −10 to +10° C. at a ramp rate of ±0.5° C./minute, over 75 h.

[7] = Suspension equilibration of Form B(II) in acetonitrile/water
Experimental: To further investigate the stability hierarchy of Form B (I) and Form B (II), an equal portion of both Form B (I) and Form B (II) were competitively slurry ripened in 4 to 1 MeCN/Water (w/w) for 3 days.
One portion of Form B(II) (1.06 g) was charged with 4 to 1 v/v acetonitrile/water (15 vol, 15 ml). This was stirred at room temperature with a flow of nitrogen. The mixture was subsampled at t=4 h and t=23 h. The subsamples were centrifuged down (13400 rpm for 15 min), supernatants were removed and dried overnight in oven at 40° C. under reduced pressure.

[8] = Suspension equilibration of Form B in anhydrous acetonitrile; settings: room temperature
Experimental: One portion of Form B(II) (1.01 g) was charged with anhydrous acetonitrile (15 vol, 15 ml).
This was stirred at room temperature with a flow of nitrogen. The mixture IPC was subsampled at t=3 h and t=23 h. The subsampled mixtures were centrifuged down (13400 rpm for 15 min), supernatants were removed and dried overnight in oven at 40° C. under reduced pressure. The remaining solid was dried (t=2 days) in oven overnight under reduced pressure at 40° C. overnight. The dried white solid (0.54 g, 54% yield not corr.) was analysed by XRPD and DSC.
A similar procedure was carried out for a portion of Form B(I) (1.06 g). Int his case, the mixture was subsampled at t=5 h and isolation was carried out at t=5 days. The uncorrected yield was 66%.

[9] = Compaction of Forms B(I) and B(II) (ca 10 tonnes)
From the text: Assuming that the inconsistencies between the dehydration behaviours of the two batches were attributed to different locations and bindings of their water occupancies, both were examined after 10 tonne compaction, to determine if their dehydration features were conserved or altered after the application of equal pressure treatments.
A finely divided specimen of Form B(II) was applied evenly to the smooth surface of the lower sample anvil that was located inside the compression cell apparatus. A second smoothed face anvil was placed above the first and the sample was pressed into place using finger pressure. The sealed sample cell was then evacuated under house vacuum pressure for at least 5 minutes. An axial load of ca 10 metric tonnes was applied to the upper anvil and the specimen was maintained under a state of unilateral compression for at least 15 minutes. After which time, the apparatus was dismantled and the product was retrieved from the sample holder and analysed to determine if any phase modifications had taken place.

[10] = Suspension equilibration of Form B(II) in purified water; settings: room temperature
Experimental: One portion of Form B(II) (1.0 g) was charged with purified water (15 vol, 15 ml). This was stirred at room temperature with a flow of nitrogen for 20 h. The mixture was subsampled at t=2 h and t=20 h. The subsampled mixture was centrifuged down (13400 rpm for 15 min) and supernatant was removed. The remaining solid was dried (at t=3 days) in the oven under reduced pressure at 40° C. overnight. The dried white solid (A0903-184-C1, 0.84 g, 83% yield not corr.). The result for the sample at 3 days are not shown as these are the same as the subsample taken at 20 hours.

[11] = citrate buffered surfactant suspensions, 1° C./min, 14 days
[12] = micronised (particle size 2 μm), 20° C., with or without surfactant

Compound: CC(C)(C)NC(=O)c1cc(NC(=O)Cc2cc(Cl)ccc2O)ccn1 [Form A + Form D (1/1 w/w)]
- Output form (XRPD) ([1]; 40 ° C., stirred 7 days): Form A

Compound: CC(C)(C)NC(=O)c1cc(NC(=O)Cc2cc(Cl)ccc2O)ccn1 [Form A + Form F (1/1 w/w)]
- Output form (XRPD) ([1]; 20 ° C.): Form A

Compound: CC(C)(C)NC(=O)c1cc(NC(=O)Cc2cc(Cl)ccc2O)ccn1 [Form A, N-tert-Butyl-4-[[2-(5-chloro-2-hydroxy-phenyl)acetyl]amino]pyridine-2-carboxamide]
- hydrate formation, XRPD repeated after the DVS test [2]: no hydrate was formed
- hygroscopicity / moisture affinity by DVS [2]: not hygroscopic
- change in mass (uptake of water) by DVS ([2]; 90% relative humidity (RH), 25° C.): 0.02%
- Output form (XRPD) ([1]; 40 ° C., stirred 7 days): Form A
- form after thermocycling (XRPD) ([3]; citrate buffered Tween® 20/Span® 22, 14 days, 1° C./min): converted to Form B
- form after thermocycling (XRPD) ([3]; citrate buffered Tween® 80, 14 days, 1° C./min): converted to Form B
- time point of first morphological change (polarised light microscopy) ([3]; citrate buffered surfactant suspensions, 1° C./min): eight day
- form stability to constant thermocycling (XRPD, DSC, TGA, microscopy) [3, 11]: changed into Form B(I)
- chemical purity after thermocycling ([3]; 14 days, accompanying the form change): No reduction in chemical purity
- form after suspension equilibration in purified water only (XRPD) ([4]; 20° C., 7 to 10 days): partial conversion into Form B
- form after suspension equilibration in purified water (XRPD) ([4]; 40° C., 7 days): Form A, no Form B was evident
- form stability in solvent suspension (XRPD) ([4]; anhydrous solvents (20 vol), 20° C., 7 days): resilient to prolonged solvent mediated treatments
- storage stability of Form A in pre-made composition (surfactant present) ([5]; 20 to 40° C. storage conditions): 120 h
- Form B in aqueous suspension of Form A ([5]; 24 hour time point): no Form B can be detected
- form present in aqueous suspension of Form A ([5]; after 8 days): substantially all of the Compound 1 was present as the Form B hydrate crystalline form
- time after which micronised Form A had almost completely converted into Form B [5, 12]: 146 h
- time after which micronised Form A had started to convert to Form B [5, 12]: 48 h
- form change by XRPD and DSC after thermocycling [6]: did not change

Compound: CC(C)(C)NC(=O)c1cc(NC(=O)Cc2cc(Cl)ccc2O)ccn1 [Form B (I) and Form B (II)]
- resulting solid (DSC) after competitive slurry ripening ([7]; 4 to 1 MeCN/Water (w/w), 3 days): Form B (I)

More lines, main results first:

- form stability to constant thermocycling (XRPD, DSC, TGA, microscopy) [3, 11]: stable
- form after suspension equilibration in anhydrous acetonitrile (XRPD) ([8]; 5 hours, 5 days similar): rapidly converted to Form A
- form change by XRPD and DSC after thermocycling [6]: unchanged
- form after 10 tonne compaction (DSC) [9]: unchanged
Compound: CC(C)(C)NC(=O)c1cc(NC(=O)Cc2cc(Cl)ccc2O)ccn1 [Form B(I), N-tert-Butyl-4-[[2-(5-chloro-2-hydroxy-phenyl)acetyl]amino]pyridine-2-carboxamide]

- form after suspension equilibration in anhydrous acetonitrile (XRPD) ([8]; 3 hours, 23 hours and 3 days substantially the same): rapidly converted to Form A
- form after suspension equilibration in purified water (DSC) ([10]; 20 hours and three days): converted to Form B(I)
- degree of crystallinity by XRPD before compression [9]: 87.2%
- form after 10 tonne compaction (DSC) [9]: converted to Form B(I)
- degree of crystallinity by XRPD after compression ([9]; ca 10 metric tonnes): 80.3%
- form after 10 tonne compaction (DSC) ([9]; listed as Form B (II)): Form B (I) emerged
Compound: CC(C)(C)NC(=O)c1cc(NC(=O)Cc2cc(Cl)ccc2O)ccn1 [Form B(II), N-tert-Butyl-4-[[2-(5-chloro-2-hydroxy-phenyl)acetyl]amino]pyridine-2-carboxamide]
- form after stirring in 4 to 1 v/v acetonitrile/water (DSC, XRPD) ([7]; room temperature, t=4 h and t=23 h): production of Form B(I); also recorded: converted to Form B(I)
- form after suspension equilibration in purified water (DSC) ([10]; 2 hours): only the unimodal event was observed; also recorded: converted to Form B(I)
- form change by XRPD and DSC after thermocycling [6]: almost all converted to the unimodal event

From patent publication US12281077B2, “Solid forms of n-tert-butyl-4[[2-(5-chloro-2-hydroxy-phenyl)acetyl]amino]pyridine-2-carboxamide” (TMEM16A LIMITED, priority 2019, dated 2025)
